Laboratory results from patent publication US11365216B2, “Antiviral immunotropic agent for the treatment of acute respiratory viral infections” (PVP LABS PTE. LTD., priority 2018, dated 2022).
Where a SMILES comes first, the peptide text is derived from it. [ ]: non-standard residue; d: D form.

Experiments:
[1] = test system: influenza A virus/New Caledonia/20/99 (H1N1); assay: microbe, parasite or virus in culture; format: cell-based
[2] = test system: influenza A virus/Aichi/2/69 (H3N2); assay: influenza-induced pneumonia in mice; format: in vivo
type 5 adenovirus = assay: suppression of cytopathogenic effect of adenovirus in monolayer HeLa culture; format: cell-based
Method: The work was performed using type 5 adenovirus, which was procured in 1998 from the D.I. Ivanovsky Research Institute of Virology and stored in the Specialised Collection of a branch of the 48th Central Research Institute of the Ministry of Defence of Russia—Computing Centre.
A HeLa type culture (cervical carcinoma cells) with a density of 200-250 thousand/mL was used. Semisynthetic growth media based on Hank's solution containing 7.5 and 2% bovine serum respectively were used. A 48-hour monolayer culture of HeLa cells was infected with type 5 adenovirus at a dose of 0.01 TCID50 per cell. The monolayer culture was then incubated at 37±0.5° C. for 96 hours.
The antiviral activity of the product was evaluated by the suppression of the cytopathogenic effect (CPE) of the virus in the HeLa culture after the virus was applied to an established monolayer culture of HeLa cells.
Efficacy criteria of the test drug were: CPE detection rate and inhibitory constant (Ki, %). The inhibitory constant was calculated according to the following formula: Ki=100. (Cc-Ct)/Cc, where Cc and Ct is the infectious titre of the virus in the control sample and test sample respectively.

IFN-α = assay: interferon-inducing effect in mice (ELISA of blood plasma); format: in vivo; details: 24 hours after administration; Dalargin 1 mg/kg, ARBIDOL intragastrically; versus control groups
Method: The experiments were performed in 40 CBA×C57BI/6/male mice with a body weight of 20-25 g. The animals were randomised in 4 groups (of 10 animals each): two active groups (receiving Dalargin or ARBIDOL) and two control groups. One control group was intended for determining baseline INF levels (before the start of the experiment), the other group was intended for determining INF levels at 24 hours after the administration of placebo (saline), ensuring the equivalence of conditions.
Dalargin was administered at a dose of 1 mg/kg, which is equivalent to a human dose of 5-6 mg. ARBIDOL was administered intragastrically as a suspension premix in 1% starch gel. Statistical analysis was performed using the Bonferroni correction for multiple testing.
IFN-α levels in the blood plasma of mice was measured at 24 hours after the administration of the drugs. Blood for interferon determination was sampled from the heart under Nembutal anaesthesia (60 mg/kg). […] IFN levels were determined using commercially available enzyme-linked immunosorbent assay (ELISA) kits manufactured by VeriKine™ (USA). […]
The test samples and diluted standards were applied to the plate in duplicate. […] The activity of bound peroxidase was measured on a UNIPLAN™ (Picon) immunoassay analyser at 450 nm.

natural killer cells = assay: functional (cytotoxic) activity of natural killer cells, radiometric assay with K-562 target cells; format: cell-based, healthy donors; details: 5.10^−8 M (≈0.036 μg/mL), 24 hours
Method: When evaluating the effect of Dalargin in vitro on the functional activity of NK cells, these cells were obtained from a suspension of peripheral blood mononuclear cells of healthy donors (n=20).
Functional activity of NK cells was determined on the basis of the cytotoxic reaction (NK can lyse cells of myeloblastoid and lymphoblastoid lines) using the radiometric assay. To perform it, cells of the K-562 myeloblastoid line at a concentration of 10^6/mL were incubated for one hour at 37° C. with ^3H-uridine at 3 μCi/mL of the cell suspension on day 2 after subcultivation. After the incubation, the cells were washed off the radiolabel in medium 199 three times. […]
In one case, after the effector cells and target cells were applied to the plates, Dalargin was added at a molar concentration of 5.10^−8 M (≈0.036 μg/mL). […] The plates were then incubated for 24 hours in a CO2 incubator at 37° C., whereupon the contents were transferred to fibreglass filters, washed, dried, placed in vials with a scintillation liquid, and radioactivity was determined using a β-particle counter. cytotoxicity index (CI) was determined using the formula CI=((A−B)/(C−B)). 100%, where A is radioactivity of target cells in the presence of effector cells, B is residual radioactivity after treating the target cells with Triton X-100, C is radioactivity in target cells in the absence of effector cells.

neutrophils = assay: phagocytic activity of peptone-mobilised neutrophils; format: in vivo, mice; details: 0.2 mg/kg single dose, IM or intranasal
Method: (§1) Dalargin is currently authorised for human use in the single dose range from 1 to 5 mg, which, if recalculated for mice, corresponds to z0.2-1 mg/kg. Therefore, the dose used for evaluating the efficacy of the drug in murine phagocytic peritoneal exudate cells was 0.2 mg/kg. Of additional interest was an investigation of possible effect of the route of administration of the drug on functional activity of the phagocytes.
(§2) The immunomodulating activity of the drug was evaluated by microscopy. The test was performed in 60 male BALB/c mice with a body weight of 18-22 g. The animals were allocated to 6 equal groups of 10 mice each. Two groups served as controls. The active therapy groups received Dalargin IM or intranasally at a single dose of 0.2 mg/kg. Macrophage and neutrophil extraction procedures were performed on the next day after administering the study drugs.
The mice were given an intraperitoneal injection of 3-4 mL of 10% peptone solution as a chemoattractant to cause neutrophil accumulation, and 2 hours later the mice were euthanised using chloroform 2 hours later. […]
(§3) The phagocytic activity of neutrophils was evaluated by the following parameters: phagocytic index and phagocyte number. Functional activity of macrophages was evaluated by microscopy, as well as by their ability to absorb nitroblue tetrazolium (NBT) in the activated state.

macrophages = assay: phagocytosis and NBT reduction of peritoneal exudate macrophages; format: in vivo, mice; details: 0.2 mg/kg single dose, IM or intranasal
Method: as §1, §2
In order to isolate macrophages, the mice were euthanised on day 3 after the peptone injection. Then 3-4 mL of medium 199 with 10% of foetal bovine serum was administered intraperitoneally, and the liquid was aspirated. […]
as §3

IL-1 = assay: production of pro-inflammatory cytokines in peripheral blood mononuclear cell culture; format: cell-based, healthy donors; details: 5.10^−8 M, relative to control samples (100%)
Method: (§4) The effect of Dalargin on the synthesis of cytokines IL-1 (interleukin-1), IL-6 (interleukin-6) and TNF-α (tumour necrosis factor α) was evaluated in an in vitro experiment using a peripheral blood mononuclear cell culture of healthy donors (n=20). Stimulation with an enterobacterial polysaccharide was used to induce the production of pro-inflammatory cytokines.
(§5) In order to obtain a suspension of mononuclear cells, blood was diluted at a 1:2 ratio with medium 199, applied to a Ficoll-Paque density gradient, d=1.077 g/cm^3, and centrifuged at 400 g for 40 min. The white ring produced at the phase interface, which contained mononuclear cells, was carefully withdrawn with a Pasteur pipette and washed twice with medium 199 using 10-minute-long centrifugation (200 g). The precipitate was resuspended in a nutrient medium, counted in a Goryayev counting chamber and adjusted to the required concentration.
(§6) Dalargin was added at a molar concentration of 5.10^−8 M (Z0.036 μg/mL) to the test samples with the polysaccharide and mononuclear cell suspension. The drug was not added to control samples.
(§7) Cytokine quantitation in blood serum was performed using two-site ELISA.

IL-6 = assay: as above; format: cell-based, healthy donors; details: 5.10^−8 M, relative to control samples (100%)
Method: as §4, §5, §6, §7

TNF-α = assay: as above; format: cell-based, healthy donors; details: 5.10^−8 M, relative to control samples (100%)
Method: as §4, §5, §6, §7

Compound | inhibition at 10 µg/mL ([1]; Influenza A virus, H1N1, MDCK, concentration of 10.0 μg/mL, read-out: inhibiting effect on the reproduction of epidemic virus strains) [%] | MIC values (MIC50, concentration inhibiting virus reproduction by 50%), comparison ([1]; MDCK tissue culture, hexapeptide versus ARBIDOL) | efficacy relative to Arbidol in terms of mean lifetime and survival rate ([2]; Dalargin 2 mg/kg/day IM or intranasal) | mortality due to influenza-induced pneumonia ([2]; IM or intranasal 2 mg/kg/day for 5 days, relative to placebo) | weight loss ([2]; relative to control/placebo, weighed on days 3, 5 and 15) | protective efficacy (type 5 adenovirus; 10 μg/mL) [%] | growth of protective efficacy, administration 24 h before challenge relative to 2 hours after challenge (type 5 adenovirus; added to the maintenance medium) | protection of cells from the cytopathogenic effect of the virus (type 5 adenovirus; administered 24 h before challenge, 0.01 TCID50 per cell, concentrations of 100, 20 and 10) | IFN-α level in blood plasma/serum (IFN-α) | effect on cytotoxic activity of natural killer cells (natural killer cells) | phagocytic activity (phagocytosis) of peptone-mobilised neutrophils (neutrophils) | phagocytosis of peritoneal exudate macrophages, ability to reduce NBT (macrophages) | lipopolysaccharide-induced production of IL-1 (IL-1) | lipopolysaccharide-induced production of IL-6 (IL-6) | lipopolysaccharide-induced production of TNF-α (TNF-α)
CCOC(=O)c1c(CSc2ccccc2)n(C)c2cc(Br)c(O)c(CN(C)C)c12 [ARBIDOL, reference compound] | 100 |  |  |  |  |  |  |  |  |  |  |  |  |  | 
CC(C)C[C@H](NC(=O)[C@H](Cc1ccccc1)NC(=O)CNC(=O)[C@@H](C)NC(=O)[C@@H](N)Cc1ccc(O)cc1)C(=O)N[C@@H](CCCNC(=N)N)C(=O)O [Dalargin, tyrosyl-D-alanyl-glycyl-phenylalanyl-leucyl-arginine] (H-Y[dA]GFLR-OH) |  | lower MIC values | greater efficacy | reduces the mortality | reduces weight loss | 40.0 | 10-20% | almost completely protected | significant production | immunotropic potential | capable of increasing the phagocytic activity | stimulating effect | significant suppression | significant suppression | significant suppression
